Data from PMC6437697 (Journal of Medicinal Chemistry, 2019).

Key:
Assay in all cases: KINOMEscan
[1] = target: T1, CDK2 (Homo sapiens, UniProt P24941); type: binding; settings: read-out: % control activity remaining
T1 construct: purchased Eurofins DiscoverX KINOMEscan

[2] = target: T2, CSF1R (Homo sapiens, UniProt P07333); type: binding; settings: read-out: % control activity remaining
T2 construct: purchased Eurofins DiscoverX KINOMEscan

[3] = target: T3, DMPK (Homo sapiens, UniProt Q09013); type: binding; settings: read-out: % control activity remaining
T3 construct: purchased Eurofins DiscoverX KINOMEscan
T3 sequence (Q09013 1-629): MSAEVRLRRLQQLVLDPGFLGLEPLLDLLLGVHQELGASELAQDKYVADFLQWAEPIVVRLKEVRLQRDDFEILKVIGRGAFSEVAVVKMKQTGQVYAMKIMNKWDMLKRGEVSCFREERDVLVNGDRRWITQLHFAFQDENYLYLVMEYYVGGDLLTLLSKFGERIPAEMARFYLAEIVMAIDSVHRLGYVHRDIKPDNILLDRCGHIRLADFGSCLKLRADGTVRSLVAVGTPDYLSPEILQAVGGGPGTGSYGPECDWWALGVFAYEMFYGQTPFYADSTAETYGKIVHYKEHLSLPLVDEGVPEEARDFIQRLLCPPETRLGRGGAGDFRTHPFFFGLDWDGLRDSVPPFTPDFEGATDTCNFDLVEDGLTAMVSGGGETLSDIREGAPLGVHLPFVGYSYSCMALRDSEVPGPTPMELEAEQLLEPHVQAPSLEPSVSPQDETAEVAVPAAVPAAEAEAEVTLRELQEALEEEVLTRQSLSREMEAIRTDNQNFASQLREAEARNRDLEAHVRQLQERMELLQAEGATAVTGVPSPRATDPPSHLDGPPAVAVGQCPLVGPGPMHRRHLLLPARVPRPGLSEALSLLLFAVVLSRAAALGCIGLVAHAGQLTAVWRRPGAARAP

[4] = target: T4, ERBB4 (Homo sapiens, UniProt Q15303); type: binding; settings: read-out: % control activity remaining
T4 construct: purchased Eurofins DiscoverX KINOMEscan
T4 sequence (Q15303 26-1308): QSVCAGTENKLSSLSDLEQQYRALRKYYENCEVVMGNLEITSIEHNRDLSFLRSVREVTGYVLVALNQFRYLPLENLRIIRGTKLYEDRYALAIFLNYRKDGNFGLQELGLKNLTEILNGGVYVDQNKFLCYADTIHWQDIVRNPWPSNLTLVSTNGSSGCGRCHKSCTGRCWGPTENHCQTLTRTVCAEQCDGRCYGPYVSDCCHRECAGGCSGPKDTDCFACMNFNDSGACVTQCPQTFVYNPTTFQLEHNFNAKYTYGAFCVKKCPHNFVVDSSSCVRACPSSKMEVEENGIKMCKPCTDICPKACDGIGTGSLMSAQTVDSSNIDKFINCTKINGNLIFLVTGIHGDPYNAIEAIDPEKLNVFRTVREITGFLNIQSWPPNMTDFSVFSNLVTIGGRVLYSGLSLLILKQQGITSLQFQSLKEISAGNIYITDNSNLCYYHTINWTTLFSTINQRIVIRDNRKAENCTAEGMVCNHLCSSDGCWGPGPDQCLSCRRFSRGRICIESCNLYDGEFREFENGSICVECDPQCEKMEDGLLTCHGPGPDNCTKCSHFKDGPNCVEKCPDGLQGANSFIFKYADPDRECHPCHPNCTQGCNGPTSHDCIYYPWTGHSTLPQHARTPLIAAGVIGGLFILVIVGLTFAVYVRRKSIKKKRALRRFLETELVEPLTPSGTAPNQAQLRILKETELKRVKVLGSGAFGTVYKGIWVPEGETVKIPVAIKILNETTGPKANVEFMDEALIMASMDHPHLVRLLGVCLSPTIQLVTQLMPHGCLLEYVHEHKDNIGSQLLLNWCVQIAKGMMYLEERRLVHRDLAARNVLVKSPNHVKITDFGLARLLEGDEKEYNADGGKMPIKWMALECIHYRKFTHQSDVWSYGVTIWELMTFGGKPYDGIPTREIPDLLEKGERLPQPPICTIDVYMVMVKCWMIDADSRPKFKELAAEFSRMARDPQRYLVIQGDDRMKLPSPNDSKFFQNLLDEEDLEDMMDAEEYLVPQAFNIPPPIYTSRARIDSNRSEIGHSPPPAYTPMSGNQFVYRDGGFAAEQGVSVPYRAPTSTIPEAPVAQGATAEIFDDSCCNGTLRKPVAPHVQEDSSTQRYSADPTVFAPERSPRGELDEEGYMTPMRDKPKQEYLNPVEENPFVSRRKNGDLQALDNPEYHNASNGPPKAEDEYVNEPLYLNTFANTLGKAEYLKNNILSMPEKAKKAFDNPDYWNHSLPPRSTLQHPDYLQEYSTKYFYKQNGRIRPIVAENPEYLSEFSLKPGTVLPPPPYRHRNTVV

[5] = system: FLT3(ITD); type: binding, human; settings: 1000 nM
[6] = target: T5, FLT4 (Homo sapiens, UniProt P35916); type: binding; settings: read-out: % control activity remaining
T5 construct: purchased Eurofins DiscoverX KINOMEscan

[7] = target: T6, JAK3(JH1domain-catalytic) (Homo sapiens, UniProt P52333); type: binding; settings: read-out: % control activity remaining
T6 construct: JAK3(JH1domain-catalytic); purchased Eurofins DiscoverX KINOMEscan

[8] = target: T7, RAF1 (Homo sapiens, UniProt P04049); type: binding; settings: read-out: % control activity remaining
T7 construct: purchased Eurofins DiscoverX KINOMEscan
T7 sequence (P04049 whole entry): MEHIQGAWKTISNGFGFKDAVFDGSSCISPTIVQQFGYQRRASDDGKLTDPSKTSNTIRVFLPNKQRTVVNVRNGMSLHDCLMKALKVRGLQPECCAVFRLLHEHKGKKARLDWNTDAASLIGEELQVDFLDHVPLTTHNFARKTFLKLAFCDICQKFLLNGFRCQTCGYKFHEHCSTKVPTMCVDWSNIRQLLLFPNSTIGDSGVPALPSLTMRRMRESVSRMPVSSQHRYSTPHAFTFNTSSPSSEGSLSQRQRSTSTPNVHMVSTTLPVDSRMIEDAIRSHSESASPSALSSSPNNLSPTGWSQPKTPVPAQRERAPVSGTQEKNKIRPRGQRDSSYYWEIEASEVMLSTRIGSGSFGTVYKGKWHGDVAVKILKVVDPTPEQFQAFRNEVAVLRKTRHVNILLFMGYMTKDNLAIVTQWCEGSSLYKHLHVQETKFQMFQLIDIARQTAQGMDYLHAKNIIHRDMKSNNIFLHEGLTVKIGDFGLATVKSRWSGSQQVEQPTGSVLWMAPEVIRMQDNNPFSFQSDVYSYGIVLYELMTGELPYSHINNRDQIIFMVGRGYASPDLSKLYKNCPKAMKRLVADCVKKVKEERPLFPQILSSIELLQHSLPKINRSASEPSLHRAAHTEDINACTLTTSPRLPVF

[9] = target: T8, SRPK1 (Homo sapiens, UniProt Q96SB4); type: binding; settings: read-out: % control activity remaining
T8 construct: purchased Eurofins DiscoverX KINOMEscan
T8 sequence (Q96SB4 whole entry): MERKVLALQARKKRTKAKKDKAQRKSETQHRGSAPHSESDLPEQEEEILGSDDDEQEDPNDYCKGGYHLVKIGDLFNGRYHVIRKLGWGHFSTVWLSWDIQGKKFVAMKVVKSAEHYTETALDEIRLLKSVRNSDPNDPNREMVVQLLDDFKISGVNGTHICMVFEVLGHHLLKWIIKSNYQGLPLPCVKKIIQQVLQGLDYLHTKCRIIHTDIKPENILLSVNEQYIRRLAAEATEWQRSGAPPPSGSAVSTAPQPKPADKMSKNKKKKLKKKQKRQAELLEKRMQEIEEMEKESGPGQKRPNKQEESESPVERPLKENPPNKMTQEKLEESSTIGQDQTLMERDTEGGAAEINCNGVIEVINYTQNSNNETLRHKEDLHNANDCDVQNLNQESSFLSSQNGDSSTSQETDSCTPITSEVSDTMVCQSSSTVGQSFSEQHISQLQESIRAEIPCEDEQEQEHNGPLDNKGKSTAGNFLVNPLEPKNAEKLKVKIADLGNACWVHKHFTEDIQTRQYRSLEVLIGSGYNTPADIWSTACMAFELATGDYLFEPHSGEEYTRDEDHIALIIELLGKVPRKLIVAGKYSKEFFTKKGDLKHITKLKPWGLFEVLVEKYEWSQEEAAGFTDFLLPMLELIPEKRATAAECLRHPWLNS

[10] = target: T9, SRPK2 (Homo sapiens, UniProt P78362); type: binding; settings: read-out: % control activity remaining
T9 construct: purchased Eurofins DiscoverX KINOMEscan
T9 sequence (P78362 whole entry): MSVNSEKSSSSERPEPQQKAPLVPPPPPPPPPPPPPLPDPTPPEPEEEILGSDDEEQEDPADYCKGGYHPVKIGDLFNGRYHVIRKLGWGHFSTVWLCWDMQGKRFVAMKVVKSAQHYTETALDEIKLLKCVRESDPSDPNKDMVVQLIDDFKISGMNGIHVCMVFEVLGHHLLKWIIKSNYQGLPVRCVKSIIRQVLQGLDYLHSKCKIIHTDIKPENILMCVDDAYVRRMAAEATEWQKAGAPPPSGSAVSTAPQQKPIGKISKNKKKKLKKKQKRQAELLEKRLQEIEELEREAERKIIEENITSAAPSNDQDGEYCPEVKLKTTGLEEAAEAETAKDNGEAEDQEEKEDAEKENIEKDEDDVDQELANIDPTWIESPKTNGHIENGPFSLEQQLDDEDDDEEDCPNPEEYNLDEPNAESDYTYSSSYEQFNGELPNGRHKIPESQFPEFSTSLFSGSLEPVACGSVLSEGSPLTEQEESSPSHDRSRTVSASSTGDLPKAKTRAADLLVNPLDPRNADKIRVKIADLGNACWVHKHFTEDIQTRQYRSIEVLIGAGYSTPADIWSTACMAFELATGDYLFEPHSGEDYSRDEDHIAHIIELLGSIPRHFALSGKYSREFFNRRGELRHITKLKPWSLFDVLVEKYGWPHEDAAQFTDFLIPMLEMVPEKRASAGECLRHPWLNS

[11] = target: T10, TGFBR2 (Homo sapiens, UniProt P37173); type: binding; settings: read-out: % control activity remaining
T10 construct: purchased Eurofins DiscoverX KINOMEscan

[12] = target: T11, TNNI3K (Homo sapiens, UniProt Q59H18); type: binding; settings: read-out: % control activity remaining
T11 construct: purchased Eurofins DiscoverX KINOMEscan
T11 sequence (Q59H18 1-835): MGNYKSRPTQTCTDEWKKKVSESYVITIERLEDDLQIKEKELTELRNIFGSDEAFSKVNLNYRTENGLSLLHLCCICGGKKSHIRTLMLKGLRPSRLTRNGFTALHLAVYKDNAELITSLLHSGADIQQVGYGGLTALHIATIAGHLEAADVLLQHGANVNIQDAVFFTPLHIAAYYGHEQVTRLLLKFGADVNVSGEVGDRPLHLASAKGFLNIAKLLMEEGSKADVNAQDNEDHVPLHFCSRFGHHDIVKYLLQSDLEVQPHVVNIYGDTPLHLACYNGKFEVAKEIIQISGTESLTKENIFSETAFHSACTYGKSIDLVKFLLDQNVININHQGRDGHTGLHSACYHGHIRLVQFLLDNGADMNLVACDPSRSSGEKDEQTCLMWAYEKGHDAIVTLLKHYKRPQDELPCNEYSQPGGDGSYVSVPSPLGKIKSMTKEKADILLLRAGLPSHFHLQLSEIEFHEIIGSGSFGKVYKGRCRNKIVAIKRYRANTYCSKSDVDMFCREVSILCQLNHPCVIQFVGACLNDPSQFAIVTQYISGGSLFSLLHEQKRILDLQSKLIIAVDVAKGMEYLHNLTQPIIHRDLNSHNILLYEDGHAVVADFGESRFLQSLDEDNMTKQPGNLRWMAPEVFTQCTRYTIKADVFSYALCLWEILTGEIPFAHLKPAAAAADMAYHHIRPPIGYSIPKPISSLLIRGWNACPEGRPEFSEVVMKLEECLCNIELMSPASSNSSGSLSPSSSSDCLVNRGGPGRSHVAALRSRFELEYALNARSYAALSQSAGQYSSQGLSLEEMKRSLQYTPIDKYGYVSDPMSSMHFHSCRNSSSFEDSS

[13] = target: T12, WEE2 (Homo sapiens, UniProt P0C1S8); type: binding; settings: read-out: % control activity remaining
T12 construct: purchased Eurofins DiscoverX KINOMEscan
T12 sequence (P0C1S8 whole entry): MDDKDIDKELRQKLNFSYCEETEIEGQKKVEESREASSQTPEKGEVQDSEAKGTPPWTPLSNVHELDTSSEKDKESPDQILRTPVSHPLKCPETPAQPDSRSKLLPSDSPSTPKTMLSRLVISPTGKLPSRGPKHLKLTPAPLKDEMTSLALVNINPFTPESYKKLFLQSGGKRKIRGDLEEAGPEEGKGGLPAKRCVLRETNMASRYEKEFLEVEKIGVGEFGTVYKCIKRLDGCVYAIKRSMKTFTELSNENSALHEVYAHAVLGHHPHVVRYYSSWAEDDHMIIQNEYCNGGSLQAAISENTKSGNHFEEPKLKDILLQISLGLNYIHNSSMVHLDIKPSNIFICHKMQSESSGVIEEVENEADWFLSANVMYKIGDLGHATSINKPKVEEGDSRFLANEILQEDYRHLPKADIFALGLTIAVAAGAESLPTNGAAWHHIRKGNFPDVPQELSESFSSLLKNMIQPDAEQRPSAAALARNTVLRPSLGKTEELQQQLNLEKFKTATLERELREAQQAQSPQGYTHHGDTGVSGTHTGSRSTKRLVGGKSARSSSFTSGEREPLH

T2 sequence (P07333 20-972): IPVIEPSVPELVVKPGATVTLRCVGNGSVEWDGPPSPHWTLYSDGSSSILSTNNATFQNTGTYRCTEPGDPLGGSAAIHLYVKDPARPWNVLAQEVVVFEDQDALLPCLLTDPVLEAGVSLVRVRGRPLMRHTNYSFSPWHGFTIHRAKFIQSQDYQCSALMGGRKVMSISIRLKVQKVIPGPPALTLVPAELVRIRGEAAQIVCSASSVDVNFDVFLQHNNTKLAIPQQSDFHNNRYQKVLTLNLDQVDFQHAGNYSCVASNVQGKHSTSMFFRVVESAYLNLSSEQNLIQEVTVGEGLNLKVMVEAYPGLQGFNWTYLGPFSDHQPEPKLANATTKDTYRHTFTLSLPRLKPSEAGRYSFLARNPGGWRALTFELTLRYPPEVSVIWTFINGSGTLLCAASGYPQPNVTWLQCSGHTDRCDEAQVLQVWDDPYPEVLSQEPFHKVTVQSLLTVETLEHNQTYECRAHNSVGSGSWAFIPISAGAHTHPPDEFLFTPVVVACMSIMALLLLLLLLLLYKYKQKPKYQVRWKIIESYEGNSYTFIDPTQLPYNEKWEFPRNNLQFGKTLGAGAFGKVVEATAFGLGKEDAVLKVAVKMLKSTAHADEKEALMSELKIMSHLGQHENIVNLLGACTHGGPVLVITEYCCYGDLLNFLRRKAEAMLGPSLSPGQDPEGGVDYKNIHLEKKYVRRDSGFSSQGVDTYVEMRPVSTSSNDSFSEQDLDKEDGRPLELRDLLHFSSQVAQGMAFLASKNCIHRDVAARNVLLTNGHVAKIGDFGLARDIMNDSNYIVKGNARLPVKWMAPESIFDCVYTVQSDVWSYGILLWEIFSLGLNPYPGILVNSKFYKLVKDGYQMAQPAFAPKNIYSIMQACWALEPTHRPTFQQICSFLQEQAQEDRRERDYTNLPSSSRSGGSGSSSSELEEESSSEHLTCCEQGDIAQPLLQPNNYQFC

SMILES	remaining binding at 1 µM [1] [%]	remaining binding at 1 µM [2] [%]	remaining binding at 1 µM [3] [%]	remaining binding at 1 µM [4] [%]	% control activity remaining [5] [%]	remaining binding at 1 µM [6] [%]	remaining binding at 1 µM [7] [%]	remaining binding at 1 µM [8] [%]	remaining binding at 1 µM [9] [%]	remaining binding at 1 µM [10] [%]	remaining binding at 1 µM [11] [%]	remaining binding at 1 µM [12] [%]	remaining binding at 1 µM [13] [%]
Clc1cc(NCC2CC2)c2ncc(-c3ccc4[nH]ncc4c3)n2n1 [compound 2, 6-Chloro-N-(cyclopropylmethyl)-3-(1H-indazol-5-yl)imidazo[1,2-b]pyridazin-8-amine]	88	79	84	99	5.6	95	100	99	100	73	100	97	94
O=C(CN1CCOCC1)N[C@H]1CC[C@H](Nc2cc(Cl)nn3c(-c4ccc5[nH]ncc5c4)cnc23)CC1 [compound 26]	95	21	99	100	0.25	83	100	100	79	79	100	100	87
CN1CCC(CNc2cc(Cl)nn3c(-c4cc5nc(Nc6ccccc6)[nH]c5cc4F)cnc23)CC1 [compound 31, 6-Chloro-3-(6-fluoro-2-(phenylamino)-1H-benzo[d]imidazol-5-yl)-N-((1-methylpiperidin-4-yl)methyl)imidazo[1,2-b]pyridazin-8-amine]	98	60	89	100	91	100	82	100	84	93	100	100	97
